For this assay, the target named is T1, Recombinant human mPGES-1 (Homo sapiens, UniProt O14684).
T1 construct: made in house; host or cells: CHO cells
T1 sequence (O14684 1-152): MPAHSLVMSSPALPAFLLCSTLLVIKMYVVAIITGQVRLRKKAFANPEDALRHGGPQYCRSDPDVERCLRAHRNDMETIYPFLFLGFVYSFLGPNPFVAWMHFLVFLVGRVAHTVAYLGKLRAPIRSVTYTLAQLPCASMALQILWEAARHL
Description: In-vitro mPGES-1 inhibitor screening (inhibition of PGE2 formation from PGH2, HTRF detection). The format is biochemical. The settings on record: for inhibition at 1 µM: 1 μM test compound, read-out: Percentage inhibition at 1 μM; for inhibition at 1 µM / inhibition at 10 µM: crude microsomal fraction, 15 μM PGH2; for inhibition at 10 µM: 10 μM test compound, read-out: Percentage inhibition at 10 μM; for IC50: class symbol, concentration response curve. An outline of the steps:
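PGE2 formation measured by HTRF after 1 min reaction with 15 μM PGH2, stopped with stannous chloride (11 mg/ml). Beforehand, compound and crude CHO-expressed human mPGES-1 microsomes (40-60 μg/mL) sat 10 min in phosphate/EDTA buffer with 2.5 mM GSH (0.5% DMSO final). IC50 fitted from concentration-response of % inhibition.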

Structures are written as SMILES. Where only a bound is given, the exact number is not on record here.

One may read the inhibition as how much of the control response was suppressed. One may read the IC50 as the concentration that gives 50% inhibition.

In the case of `CC(C)C(=O)NCc1cnc(C(F)F)c(C(=O)Nc2cccc3c(Oc4cccc(C(F)(F)F)c4)ncnc23)c1` [Example-74, 2-(Difluoromethyl)-5-(isobutyramidomethyl)-N-(4-(3-(trifluoromethyl)phenoxy)quinazolin-8-yl)nicotinamide], the inhibition at 1 µM was found to be 100%, the inhibition at 10 µM amounted to 100% and the IC50 was less than 50 nM.

For the compound `CC(C)C(=O)NCc1cnc(C(F)F)c(C(=O)Nc2cccc3c(NC(C)(C)C)ncnc23)c1` [Example-75, N-(4-(tert-Butylamino)quinazolin-8-yl)-2-(difluoromethyl)-5-(isobutyramidomethyl)nicotinamide], the inhibition at 1 µM came to 93.6%, the inhibition at 10 µM was determined as 98.3% and the IC50 was less than 50 nM.

With `CC(C)Nc1ncnc2c(NC(=O)c3cc(CNC(=O)C(C)C)cnc3C(F)F)cccc12` [Example-76, 2-(Difluoromethyl)-5-(isobutyramidomethyl)-N-(4-(isopropylamino)quinazolin-8-yl)nicotinamide], the inhibition at 1 µM was found to be 83.5%, the inhibition at 10 µM turned out to be 93.4% and the IC50 lay within 50 to 100 nM.

As for `CC(C)Nc1ncnc2c(NC(=O)c3c(Cl)ccc(CNC(=O)C(C)C)c3F)cccc12` [Example-77, 6-Chloro-2-fluoro-3-(isobutyramidomethyl)-N-(4-(isopropylamino)quinazolin-8-yl)benzamide], the inhibition at 1 µM was determined as 78.4%, the inhibition at 10 µM was 99.9% and the IC50 is less than 50 nM.

In the case of `CC(C)C(=O)NCc1cnc(C(F)F)c(C(=O)Nc2cccc3c(NCC(F)(F)F)ncnc23)c1` [Example-78, 2-(Difluoromethyl)-5-(isobutyramidomethyl)-N-(4-((2,2,2-trifluoroethyl)amino)quinazolin-8-yl)nicotinamide], the inhibition at 1 µM came to 83.3%, the inhibition at 10 µM came out at 94.8% and the IC50 is less than 50 nM.

For `CC(C)(C)Nc1ncnc2c(NC(=O)c3c(Cl)ccc(CNC(=O)C(C)(C)CF)c3F)cccc12` [Example-79, N-(4-(tert-Butylamino)quinazolin-8-yl)-6-chloro-2-fluoro-3-((3-fluoro-2,2-dimethylpropanamido)methyl)benzamide], the inhibition at 1 µM came out at 100%, the inhibition at 10 µM was determined as 99.1% and the IC50 was less than 50 nM.

Consider `CC(C)C(=O)NCc1cnc(C(F)F)c(C(=O)Nc2cccc3c(Oc4ccc(F)c(C(F)(F)F)c4)ccnc23)c1` [Example-80, 2-(Difluoromethyl)-N-(4-(4-fluoro-3-(trifluoromethyl)phenoxy)quinolin-8-yl)-5-(isobutyramidomethyl)nicotinamide], for which the inhibition at 1 µM was 99.7%, the inhibition at 10 µM was found to be 98.5% and the IC50 was less than 50 nM.

The values are drawn from patent publication US9006257B2, “Bicyclic compounds as mPGES-1 inhibitors” (Glenmark Pharmaceuticals S.A., priority 2012, dated 2015).
